Reference: US20190037899A1, “Intramolecular Trans-Sialidase” (THE INSTITUTE OF FOOD RESEARCH, priority 2016, published 2019)

Assays:
[1] = system: R. gnavus strains (ATCC 29149 and ATCC 35913); assay: Growth of R. gnavus strains on 2,7-anhydro-Neu5Ac as sole carbon source; assay type: cell-based, Ruminococcus gnavus; details: anaerobic
Description: The ability of pathogens to utilise 2,7-anhydroSA as a potential nutrient by growing the cells in presence of 2,7-anhydroSA (or sialic acid as a control) as sole carbon source under anaerobic conditions is tested. […] The ability of these pathogens to utilise 2,7-anhydro-Neu5Ac is tested by growing the cells in vitro with 2,7-anhydro-Neu5Ac synthesised using the enzymatic synthesis as described above, as sole carbon source. Growth is determined spectrophotometrically and analysed using an appropriately developed DMFit program to compare the effect of the carbon source on growth rates. The impact of ITS on the ability of pathogens to grow on mucins purified from human “goblet-like” cells is tested in co-culture experiments with R. gnavus strains (ATCC 29149 expressing ITS and E1 as a negative control) in anaerobic continuous reactors.

sialic acid aldolase = target: T1, sialic acid aldolase (Escherichia coli, UniProt P0A6L4); assay: Degradation of 2,7-anhydro-Neu5Ac by sialic acid aldolase; assay type: biochemical
T1 construct: purchased Carbosynth Limited (Compton, UK)
T1 sequence (P0A6L4 whole entry): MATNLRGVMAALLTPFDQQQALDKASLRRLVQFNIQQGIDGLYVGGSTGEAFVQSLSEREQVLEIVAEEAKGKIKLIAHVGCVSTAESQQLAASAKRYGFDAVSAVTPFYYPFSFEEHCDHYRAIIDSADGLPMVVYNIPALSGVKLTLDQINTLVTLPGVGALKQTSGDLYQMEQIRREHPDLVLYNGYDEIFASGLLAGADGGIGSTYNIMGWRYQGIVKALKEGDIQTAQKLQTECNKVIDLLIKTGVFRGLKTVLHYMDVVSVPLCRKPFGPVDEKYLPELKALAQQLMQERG
Description: A dialysis membrane (7K MWCO) containing fetuin (0.3 mM) was incubated in 100 mM ammonium formate buffer pH 6.5 for 2 h at 37° C. under gentle shaking (115 rpm). Following the addition of 50 nM RgNanH (in Tris buffer 40 mM pH 7.9) into the dialysis membrane, the reaction mixture was further incubated in 100 mM ammonium formate buffer (pH 6.5) at 115 rpm, 37° C. for 24 h. Sialic acid aldolase (17.4 units in 100 mM ammonium formate) was added to the membrane enclosed reaction mixture. Following a further 20 h incubation at 115 rpm and 37° C., 100 mL of buffer was recovered, diluted with 100 mL of ultrapure water and freeze dried. The membrane enclosed reaction mixture was dialysed with 100 mL ultrapure water for 2 h and again overnight under 115 rpm shaking and at 37° C. The water was recovered, mixed with the dried synthesis buffer and freeze dried. After complete dryness, the powder was dissolved in 100 mL ultrapure water and freeze dried again 3 times to remove volatile salts.
Considering the difficulty and the low efficiency of the separation of free Neu5Ac from 2,7-anhydro-Neu5Ac, a commercially available sialic acid aldolase from E. coli was introduced into the dialysis membrane with RgNanH and fetuin. […]

[2] = Spontaneous conversion of 2,7-anhydro-Neu5Ac to Neu5Ac (1H NMR, HPAEC-PAD); assay type: physicochemical; details: up to 24 h at 37° C.

CC(=O)N[C@H]1[C@H]2O[C@@](C(=O)O)(C[C@@H]1O)O[C@@H]2[C@H](O)CO [2,7-anhydro-Neu5Ac, 2,7-anhydro-α-N-acetylneuraminic acid]
Growth of R. gnavus strains on the compound as sole carbon source [1]: able to grow | Degradation by sialic acid aldolase (sialic acid aldolase): resistant to degradation | Spontaneous conversion of 2,7-anhydro-Neu5Ac to Neu5Ac [2]: no spontaneous conversion
